# Patent US8637572B2, “Composition for promoting collagen production” (Shiseido Company, Ltd., priority 2009, dated 2014)
# Experiments:
# [1] = tested on: human neonatal dermal fibroblasts; assay: Type I collagen production: PIP (C-terminal peptide of type I procollagen) in culture supernatant by EIA; type: cell-based; settings: for effect on promoting type I collagen production compared to the negative control (Bonferroni/Dunn test): under every concentration condition
# Method: (§1) Commercially available human neonatal dermal fibroblasts (Cryo NHDF-Neo, manufactured by Sanko Junyaku Co., Ltd.) were used. The cells were inoculated in a commercially available 24-well plate to have 2×10^5 cells per well. The cells were then cultured for four hours in a commercially available medium for cell culture (D-MEM (1 g/L glucose), manufactured by Wako Pure Chemical Industries, Ltd.) to which 10% bovine fetal serum was supplemented (herein below, referred to as a “standard medium”) in a 5% CO2 and saturated water vapor atmosphere at 37° C. (degrees Celsius).
# (§2) Subsequently, the medium was switched to a commercially available medium for cell culture (D-MEM (1 g/L glucose), manufactured by Wako Pure Chemical Industries, Ltd.) supplemented with 0.5% bovine fetal serum (herein below, referred to as “low-serum medium”) and cultured for approximately one day in a 5% CO2 and saturated water vapor atmosphere at 37° C. (degrees Celsius). D-aspartic acid (manufactured by Wako Pure Chemical Industries, Ltd., 018-04821) was added to the low-serum medium to have the concentration of 0.01 μM (micro-molar), 0.1 μM (micro-molar), […] μM (micro-molar), or 320 μM (micro-molar). As a positive control, magnesium L-ascorbyl phosphate (L-Ascorbic Acid Phosphate Magnesium Salt n-Hydrate, herein below, referred to as “APM”, manufactured by Wako Pure Chemical Industries, Ltd., 013-19641) was added to the low-serum medium to have the concentration of 150 μM (micro-molar), 250 μM (micro-molar), or 500 μM (micro-molar). Further, the low-serum medium described above to which neither APM nor D-aspartic acid had been added was employed as a negative control.
# After completing the cell culture for two days, the culture supernatant was collected and the concentration of C-terminal peptide of type I procollagen (herein below, referred to as “PIP”) produced by human neonatal dermal fibroblasts was measured by using Procollagen type I C-peptide EIA kit (manufactured by Takara Bio Inc.) according to the manufacturer's instruction.
# The cell culture, addition of amino acids, and quantification of production amount of type I collagen were carried out in the same manner as the Example 1. As an amino acid, D-alanine (manufactured by Peptide Institute, Inc., 2801) was used at the concentrations of 0.01 μM (micro-molar), 0.1 μM (micro-molar), 10 μM (micro-molar), 1000 μM (micro-molar), and 17400 μM (micro-molar). Further, the low-serum medium described above to which neither APM nor D-alanine had been added was employed as a negative control.
# The cell culture, addition of amino acids, and quantification of production amount of type I collagen were carried out in the same manner as the Example 1. D-Aspartic acid (manufactured by Wako Pure Chemical Industries, Ltd., 018-04821) of 0.1 μM (micro-molar) and L-aspartic acid (manufactured by Wako Pure Chemical Industries, Ltd., 013-04832) of 0.1 μM (micro-molar) were used as amino acids. Further, the low-serum medium described above to which neither L-aspartic acid nor D-aspartic acid had been added was employed as a negative control.
# The cell culture, addition of amino acids, and quantification of production amount of type I collagen were carried out in the same manner as the Example 1. D-Alanine (manufactured by Peptide Institute, Inc., 2801) of 0.1 μM (micro-molar) or 150 μM (micro-molar) and L-alanine (manufactured by Peptide Institute, Inc., 2701) of 0.1 μM (micro-molar) or 150 μM (micro-molar) were used as amino acids. Further, the low-serum medium described above to which neither L-alanine nor D-alanine had been added was employed as a negative control.
# [2] = tested on: human neonatal dermal fibroblasts; assay: Type I atelocollagen production after pepsin treatment, by type I human collagen ELISA; type: cell-based; settings: for promotion of type I collagen production compared to the negative control (Bonferroni/Dunn test): 0.1 μM, atelocollagen ELISA
# Method: as §1, §2
# The cell culture and addition of amino acids were carried out in the same manner as the Example 1. D-Aspartic acid (manufactured by Wako Pure Chemical Industries, Ltd., 018-04821) of 0.1 μM (micro-molar) and D-alanine (manufactured by Peptide Institute, Inc., 2801) of 0.1 μM (micro-molar) or 0.001 μM (micro-molar) were used as amino acids. Further, the low-serum medium described above to which neither D-aspartic acid nor D-alanine had been added was employed as a negative control. As a positive control, APM was added to the low-serum medium described above to have the concentration of 250 μM (micro-molar). In order to evaluate the production amount of type I collagen, type I procollagen and tropocollagen produced by human neonatal dermal fibroblasts were treated with pepsin (800 to 2500 unit/mg, P7000, manufactured by SIGMA), and the concentration of type I atelocollagen was measured by type I human collagen ELISA (EC1-E105, manufactured by AC Biotechnologies) according to the manufacturer's instruction.
# [3] = Example 4, added at 0.1 μM, negative control 361 ng/mL
# [4] = Example 4, added at 150 μM, negative control 361 ng/mL
# [5] = Example 3, added at 0.1 μM, negative control 361 ng/mL
# [6] = Example 5 results (1), added at 0.1 μM, negative control 1.8 μg/mL
compound,measurement,setting,value
"C[C@H](N)C(=O)O [L-alanine, reference compound]",PIP concentration,[1]; [3],405 ng/mL
same,PIP concentration,[1]; [4],413 ng/mL
"magnesium L-ascorbyl phosphate [APM, reference compound]",PIP concentration,"[1]; Example 1, added at 150 μM, two days culture, low-serum medium, negative control 583 ng/mL",1183 ng/mL
same,PIP concentration,"[1]; Example 1, added at 250 μM, negative control 583 ng/mL",1666 ng/mL
same,PIP concentration,"[1]; Example 1, added at 500 μM, negative control 583 ng/mL",1416 ng/mL
same,effect on promoting type I collagen production compared to the negative control (Bonferroni/Dunn test),[1]; Example 1,statistically significant effect
same,PIP concentration,"[1]; Example 2, added at 150 μM, negative control 551 ng/mL",1183 ng/mL
same,PIP concentration,"[1]; Example 2, added at 250 μM, negative control 551 ng/mL",1666 ng/mL
same,PIP concentration,"[1]; Example 2, added at 500 μM, negative control 551 ng/mL",1416 ng/mL
same,effect on promoting type I collagen production compared to the negative control (Bonferroni/Dunn test),[1]; Example 2,statistically significant effect
same,concentration of type I atelocollagen,"[2]; Example 5 results (1), added at 250 μM, negative control 1.8 μg/mL",3.9 μg (microgram)/mL
same,concentration of type I atelocollagen,"[2]; Example 5 results (2), added at 250 μM, negative control 1.7 μg/mL",2.6 μg (microgram)/mL
"N[C@@H](CC(=O)O)C(=O)O [L-aspartic acid, reference compound]",PIP concentration,[1]; [5],406 ng/mL
N[C@H](CC(=O)O)C(=O)O [D-aspartic acid],effect on promoting type I collagen production in comparison with APM,"[1]; Example 1, 0.01 μM to 100 μM similar to APM at 150 μM",prominently more potent effect on promoting type I collagen production than APM
same,PIP concentration,"[1]; Example 1, added at 0.01 μM, negative control 583 ng/mL",1286 ng/mL
same,PIP concentration,"[1]; Example 1, added at 0.1 μM, negative control 583 ng/mL",1159 ng/mL
same,PIP concentration,"[1]; Example 1, added at 10 μM, negative control 583 ng/mL",1117 ng/mL
same,PIP concentration,"[1]; Example 1, added at 100 μM, negative control 583 ng/mL",1119 ng/mL
same,PIP concentration,"[1]; Example 1, added at 320 μM, negative control 583 ng/mL",1007 ng/mL
same,effect on promoting type I collagen production compared to the negative control (Bonferroni/Dunn test),[1]; Example 1,statistically significant effect
same,promotion of type I collagen production compared to the negative control (Bonferroni/Dunn test),"[1]; Example 3, 0.1 μM",promoted with statistical significance
same,PIP concentration,[1]; [5],456 ng/mL
same,promotion of type I collagen production compared to the negative control (Bonferroni/Dunn test),[2]; Example 5 results (1),promoted with statistical significance
same,concentration of type I atelocollagen,[2]; [6],3.8 μg (microgram)/mL
C[C@@H](N)C(=O)O [D-alanine],PIP concentration,"[1]; Example 2, added at 0.01 μM, negative control 551 ng/mL",750 ng/mL
same,PIP concentration,"[1]; Example 2, added at 0.1 μM, negative control 551 ng/mL",789 ng/mL
same,PIP concentration,"[1]; Example 2, added at 10 μM, negative control 551 ng/mL",876 ng/mL
same,PIP concentration,"[1]; Example 2, added at 1000 μM, negative control 551 ng/mL",823 ng/mL
same,PIP concentration,"[1]; Example 2, added at 17400 μM, negative control 551 ng/mL",799 ng/mL
same,effect on promoting type I collagen production compared to the negative control (Bonferroni/Dunn test),[1]; Example 2,statistically significant effect
same,promotion of type I collagen production compared to the negative control (Bonferroni/Dunn test),"[1]; Example 4, 0.1 μM or 150 μM",promoted with statistical significance
same,PIP concentration,[1]; [3],502 ng/mL
same,PIP concentration,[1]; [4],450 ng/mL
same,promotion of type I collagen production compared to the negative control (Bonferroni/Dunn test),[2]; Example 5 results (1),promoted with statistical significance
same,concentration of type I atelocollagen,[2]; [6],4.0 μg (microgram)/mL
same,concentration of type I atelocollagen,"[2]; Example 5 results (2), added at 0.001 μM, negative control 1.7 μg/mL",2.1 μg (microgram)/mL
